Test results taken from ChEMBL document CHEMBL1144605, “Discovery of an androgen receptor modulator pharmacophore based on 2-quinolinones” (Bioorg Med Chem Lett, 2007).

Experiments:
[1] = biological target: T1, Androgen receptor (Homo sapiens, UniProt P10275); test: biochemical
T1 sequence (P10275 whole entry): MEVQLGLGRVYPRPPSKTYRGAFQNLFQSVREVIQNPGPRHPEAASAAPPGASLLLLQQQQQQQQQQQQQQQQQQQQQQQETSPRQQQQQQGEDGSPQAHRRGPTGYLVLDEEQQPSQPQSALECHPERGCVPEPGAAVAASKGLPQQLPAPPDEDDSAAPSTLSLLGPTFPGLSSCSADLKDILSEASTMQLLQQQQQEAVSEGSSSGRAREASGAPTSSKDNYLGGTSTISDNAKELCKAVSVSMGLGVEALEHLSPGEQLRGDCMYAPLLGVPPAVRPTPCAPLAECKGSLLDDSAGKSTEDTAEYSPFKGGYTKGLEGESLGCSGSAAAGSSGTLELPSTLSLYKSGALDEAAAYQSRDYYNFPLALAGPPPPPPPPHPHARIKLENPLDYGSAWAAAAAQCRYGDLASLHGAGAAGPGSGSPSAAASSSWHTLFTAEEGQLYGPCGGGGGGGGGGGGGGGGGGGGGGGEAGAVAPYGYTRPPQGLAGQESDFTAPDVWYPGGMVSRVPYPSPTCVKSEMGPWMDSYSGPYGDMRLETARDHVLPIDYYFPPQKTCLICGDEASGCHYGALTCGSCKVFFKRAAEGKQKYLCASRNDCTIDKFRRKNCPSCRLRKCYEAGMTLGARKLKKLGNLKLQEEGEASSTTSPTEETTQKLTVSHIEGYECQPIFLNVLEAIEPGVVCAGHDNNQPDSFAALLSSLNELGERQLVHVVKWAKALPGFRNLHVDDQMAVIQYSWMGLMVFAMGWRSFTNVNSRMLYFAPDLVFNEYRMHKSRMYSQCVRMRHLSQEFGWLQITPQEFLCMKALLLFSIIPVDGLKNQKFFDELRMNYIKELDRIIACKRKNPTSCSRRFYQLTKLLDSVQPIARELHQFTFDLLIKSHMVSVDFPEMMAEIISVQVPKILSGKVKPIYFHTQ
Description: Binding affinity to human androgen receptor expressed in CV1 cells

[2] = biological target: T1, Androgen receptor
Description: Antagonist activity at human androgen receptor expressed in CV1 cells

[3] = biological target: T1, Androgen receptor; remark: listed apart in the source
Description: Agonist activity at human androgen receptor expressed in CV1 cells

Row | SMILES | Ki [1] [nM] | IC50 [2] [nM] | EC50 [3] [nM]
1 | O=c1cc(C(F)(F)F)c2ccc(NC3CCCCC3)cc2[nH]1 | 1000 | 507 | –
2 | O=c1cc(C(F)(F)F)c2ccc(NC3CCCC3)cc2[nH]1 | 1000 | 149 | –
3 | CCNc1ccc2[nH]c(=O)cc(C(F)(F)F)c2c1 | – | 111 | –
4 | O=c1cc(C(F)(F)F)c2ccc(NCC(F)(F)F)cc2o1 | – | 50 | –
5 | O=c1cc(C(F)(F)F)c2ccc(NCc3ccccc3)cc2[nH]1 | 163 | 294 | –
6 | CC1(C)C=Cc2cc3c(C(F)(F)F)cc(O)nc3cc2N1 | 73 | 27 | –
7 | O=c1cc(C(F)(F)F)c2cc(NC3CCCC3)ccc2[nH]1 | 74 | 42 | –
8 | O=c1cc(C(F)(F)F)c2ccc(N(CC(F)(F)F)CC(F)(F)F)cc2o1 | – | 63 | 73
9 | CCC1CCc2cc3c(C(F)(F)F)cc(=O)[nH]c3cc2N1 (stereo unspecified) | 11 | 14 | –
